{"source": "patent US20140090255A1", "about": "“Skin Engaging Member Comprising At Least One Thermally Resilient Sensate” (The Gillette Company, priority 2012, published 2014)", "origin": "cited, not measured here", "data": [{"details": "concentration where the cooling effect could be clearly recognized; Emberger and Hopp 1987", "values": [{"compound": "CC(C)[C@@H]1CC[C@@H](C)C[C@@H]1O", "note": "[Example 1-neomenthol, 1-neomenthol]", "cooling threshold": "about 3,000 ppb"}, {"compound": "CC(C)[C@@H]1CC[C@@H](C)C[C@@H]1O", "note": "[d-neomenthol]", "cooling threshold": "about 25,000 ppb"}, {"compound": "CC(C)[C@@H]1CC[C@@H](C)C[C@H]1O", "note": "[L-menthol]", "cooling threshold": "about 800 ppb"}]}]}
